# Test results taken from patent US12281057B2 (VERTEX PHARMACEUTICALS INCORPORATED, priority 2017, dated 2025).
# Biological target: truncated form of human NaV 1.8 with full channel activity (Homo sapiens, UniProt Q9Y5Y9)
# Assay: E-VIPR Assay Method B for detecting and measuring Nav inhibition (HEK cells, membrane potential FRET dyes, electrical stimulation)
# Type: cell-based
# Conditions: HEK cells expressing human NaV 1.8, Table 20B, read-out: Nav 1.8 MedChem Optical Assay EVIPR Assay Method B HS IC50
# From the text: [formula] where X is the ratio response of the test compound. […] E-VIPR Assay Method B for Detecting and Measuring Nav Inhibition Properties Sodium ion channels are voltage-dependent proteins that can be activated by inducing membrane voltage changes by applying electric fields. The electrical stimulation instrument and methods of use, referred to as E-VIPR, are described in International Publication No. WO 2002/008748 A3 and C.-J. Huang et al. Characterization of voltage-gated sodium channel blockers by electrical stimulation and fluorescence detection of membrane potential, 24 Nature Biotech. 439-46 (2006), both of which are incorporated by reference in their entirety. The instrument comprises a microtiter plate handler, an optical system for exciting the coumarin dye while simultaneously recording the coumarin and oxonol emissions, a waveform generator, a current- or voltage-controlled amplifier, and parallel electrode pairs that are inserted into assay plate wells. Under integrated computer control, this instrument passes user-programmed electrical stimulus protocols to cells within the wells of the microtiter plate. […] Sigma #F4135), 1% NEAA (Non-Essential Amino Acids, Life Tech #11140), 1% HEPES (Life Tech #15630), 1% Pen-Strep (Penicillin-Streptomycin; […] Cells were expanded in vented cap flasks, with 95% humidity and 5% CO2. Reagents and Stock Solutions: • 100 mg/mL Pluronic F-127 (Sigma #P2443), in dry DMSO • Compound Plates: […] 5% KIR 2.1 Bacmam virus (produced in-house), prepared as described in Section 3.3 of J. A. Fornwald et al., Gene Expression in Mammalian Cells Using BacMam, a Modified Baculovirus System, 1350 Methods in Molecular Biology 95-116 (2016), the entire contents of which are incorporated by reference. • 5 mM DiSBAC6(3) (a voltage sensitive oxonol acceptor) (Aurora #00-100-010) in dry DMSO • 5 mM CC2-DMPE (a membrane-bound coumarin phospholipid FRET donor) (Aurora #00-100-008) in dry DMSO • 89 mM VABSC-1 in H2O. […] The solution was made by adding 10% Pluronic F127 stock equal to combined volumes of CC2-DMPE and DiSBAC6(3). The order of preparation was first mix Pluronic and CC2-DMPE, then add DiSBAC6(3), then while vortexing add Bath1/β-Cyclodextrin. […] Assay Protocol: […] Final DMSO concentration for all wells in the assay was 0.625% (0.75% DMSO was supplemented to the Compound Loading Buffer for a final DMSO concentration of 0.625%). 2) Hexyl Dye Solution was prepared. 3) Cell plates were prepared. On the day of the assay, the media was aspirated, and the cells were washed three times with 80 μL of Bath-1 buffer, maintaining 25 μL residual volume in each well. 4) 25 μL per well of Hexyl Dye Solution was dispensed into the cell plates. The cells were incubated for 20 minutes at room temp or ambient conditions in darkness. 5) 80 μL per well of Compound Loading Buffer was dispensed into compound plates. […] The mixture was incubated for 30 minutes at room temp/ambient conditions. […] A pre-stimulus recording was performed for 0.5 seconds to obtain the un-stimulated intensities baseline. The stimulatory waveform was followed by 0.5 seconds of post-stimulation recording to examine the relaxation to the resting state. Data Analysis: Data were analyzed and reported as normalized ratios of emission intensities measured in the 460 nm and 580 nm channels. The response as a function of time was reported as the ratios obtained using the following formula: [formula] The data were further reduced by calculating the initial (Ri) and final (Rf) ratios. These were the average ratio values during part or all of the pre-stimulation period and during sample points during the stimulation period. The fluorescence ratio (Rf/Ri) was then calculated and reported as a function of time. Control responses were obtained by performing assays in the presence of the positive control, and in the absence of pharmacological agents (DMSO vehicle negative control). Responses to the negative (N) and positive (P) controls were calculated as above. […]
# Sequence of truncated form of human NaV 1.8 with full channel activity (Q9Y5Y9 126-1722 limits assumed): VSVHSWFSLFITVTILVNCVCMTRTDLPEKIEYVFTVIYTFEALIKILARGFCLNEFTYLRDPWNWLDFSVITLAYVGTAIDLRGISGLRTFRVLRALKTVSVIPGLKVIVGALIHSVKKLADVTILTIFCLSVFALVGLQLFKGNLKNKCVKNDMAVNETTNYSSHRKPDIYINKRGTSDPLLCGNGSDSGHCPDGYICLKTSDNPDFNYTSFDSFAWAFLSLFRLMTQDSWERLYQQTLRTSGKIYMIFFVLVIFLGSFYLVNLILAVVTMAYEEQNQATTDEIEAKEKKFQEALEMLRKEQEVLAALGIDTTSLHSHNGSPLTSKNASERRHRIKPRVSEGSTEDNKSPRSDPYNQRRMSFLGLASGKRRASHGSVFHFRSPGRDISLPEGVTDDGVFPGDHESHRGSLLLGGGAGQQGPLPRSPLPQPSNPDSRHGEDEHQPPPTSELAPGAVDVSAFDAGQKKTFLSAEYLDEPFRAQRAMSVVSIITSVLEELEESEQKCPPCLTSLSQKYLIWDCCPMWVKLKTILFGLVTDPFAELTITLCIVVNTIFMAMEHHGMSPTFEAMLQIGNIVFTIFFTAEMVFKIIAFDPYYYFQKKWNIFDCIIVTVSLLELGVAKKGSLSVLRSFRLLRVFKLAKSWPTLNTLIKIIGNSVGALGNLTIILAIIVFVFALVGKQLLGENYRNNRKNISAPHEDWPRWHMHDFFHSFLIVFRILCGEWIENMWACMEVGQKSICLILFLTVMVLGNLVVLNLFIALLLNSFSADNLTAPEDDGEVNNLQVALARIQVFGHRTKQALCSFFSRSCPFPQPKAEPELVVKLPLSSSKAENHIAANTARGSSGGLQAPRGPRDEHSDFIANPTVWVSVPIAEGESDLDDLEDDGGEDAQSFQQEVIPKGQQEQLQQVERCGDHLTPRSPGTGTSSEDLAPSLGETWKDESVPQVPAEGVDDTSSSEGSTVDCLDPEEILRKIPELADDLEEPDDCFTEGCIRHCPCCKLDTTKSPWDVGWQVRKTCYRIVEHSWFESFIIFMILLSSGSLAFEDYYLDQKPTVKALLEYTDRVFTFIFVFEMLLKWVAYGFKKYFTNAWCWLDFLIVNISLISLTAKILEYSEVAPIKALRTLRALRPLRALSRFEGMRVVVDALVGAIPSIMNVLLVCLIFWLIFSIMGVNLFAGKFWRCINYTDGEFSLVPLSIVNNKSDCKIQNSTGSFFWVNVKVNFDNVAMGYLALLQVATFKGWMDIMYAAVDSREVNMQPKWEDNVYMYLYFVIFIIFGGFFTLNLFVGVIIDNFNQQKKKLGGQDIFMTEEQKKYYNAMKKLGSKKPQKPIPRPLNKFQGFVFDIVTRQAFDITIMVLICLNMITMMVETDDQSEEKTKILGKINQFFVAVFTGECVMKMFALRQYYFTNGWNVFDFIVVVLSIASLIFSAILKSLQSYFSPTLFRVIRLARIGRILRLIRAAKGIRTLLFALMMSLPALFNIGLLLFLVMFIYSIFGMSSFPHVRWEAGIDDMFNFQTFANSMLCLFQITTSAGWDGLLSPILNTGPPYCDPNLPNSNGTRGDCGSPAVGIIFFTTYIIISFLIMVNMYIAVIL
row,SMILES,IC50 [µM]
1,"COc1ccc(Oc2ccc(C(F)(F)F)cc2C(=O)Nc2cccc(C(N)=O)c2)c(C)c1 [Compound 280, N-(3-carbamoylphenyl)-2-(4-methoxy-2-methylphenoxy)-5-(trifluoromethyl)benzamide]",0.042
2,"COc1ccc(Oc2ccc(C(F)(F)F)cc2C(=O)Nc2cccc(C(N)=O)c2)c(OC)c1 [Compound 281, N-(3-carbamoylphenyl)-2-(2,4-dimethoxyphenoxy)-5-(trifluoromethyl)benzamide]",0.039
3,"CC(C)Oc1ccccc1Oc1ccc(C(F)(F)F)cc1C(=O)Nc1cccc(C(N)=O)c1 [Compound 282, N-(3-carbamoylphenyl)-2-(2-isopropoxyphenoxy)-5-(trifluoromethyl)benzamide]",0.13
4,"NC(=O)c1cccc(NC(=O)c2cc(C(F)(F)F)ccc2Oc2ccccc2Cl)c1 [Compound 283, N-(3-carbamoylphenyl)-2-(2-chlorophenoxy)-5-(trifluoromethyl)benzamide]",0.082
5,"Cc1cc(Cl)ccc1Oc1ccc(C(F)(F)F)cc1C(=O)Nc1cccc(C(N)=O)c1 [Compound 284, N-(3-carbamoylphenyl)-2-(4-chloro-2-methylphenoxy)-5-(trifluoromethyl)benzamide]",0.043
6,"NC(=O)c1cccc(NC(=O)c2cc(C(F)(F)F)ccc2Oc2ccccc2OC(F)F)c1 [Compound 285, N-(3-carbamoylphenyl)-2-(2-(difluoromethoxy)phenoxy)-5-(trifluoromethyl)benzamide]",0.072
7,"COc1cc(Cl)ccc1Oc1ccc(C(F)(F)F)cc1C(=O)Nc1cccc(C(N)=O)c1 [Compound 286, N-(3-carbamoylphenyl)-2-(4-chloro-2-methoxyphenoxy)-5-(trifluoromethyl)benzamide]",0.02
8,"COc1ccccc1Oc1ccc(C(F)(F)F)cc1C(=O)Nc1cccc(C(N)=O)c1 [Compound 287, N-(3-carbamoylphenyl)-2-(2-methoxyphenoxy)-5-(trifluoromethyl)benzamide]",0.084
9,"COc1cc(F)ccc1Oc1ccc(C(F)(F)F)cc1C(=O)Nc1cccc(C(N)=O)c1 [Compound 288, N-(3-carbamoylphenyl)-2-(4-fluoro-2-methoxyphenoxy)-5-(trifluoromethyl)benzamide]",0.034
10,"NC(=O)c1cccc(NC(=O)c2cc(C(F)(F)F)ccc2Oc2ccc(F)cc2Cl)c1 [Compound 289, N-(3-carbamoylphenyl)-2-(2-chloro-4-fluorophenoxy)-5-(trifluoromethyl)benzamide]",0.036
11,"Cc1cc(F)ccc1Oc1ccc(C(F)(F)F)cc1C(=O)Nc1cccc(C(N)=O)c1C [Compound 291, N-(3-carbamoyl-2-methylphenyl)-2-(4-fluoro-2-methylphenoxy)-5-(trifluoromethyl)benzamide]",1.4
12,"COc1ccc(NC(=O)c2cc(C(F)(F)F)ccc2Oc2ccc(F)cc2C)cc1C(N)=O [Compound 292, N-(3-carbamoyl-4-methoxyphenyl)-2-(4-fluoro-2-methylphenoxy)-5-(trifluoromethyl)benzamide]",0.27
13,"Cc1cc(F)ccc1Oc1ccc(C(F)(F)F)cc1C(=O)Nc1ccc(Cl)c(C(N)=O)c1 [Compound 293, N-(3-carbamoyl-4-chlorophenyl)-2-(4-fluoro-2-methylphenoxy)-5-(trifluoromethyl)benzamide]",0.033
14,"Cc1cc(F)ccc1Oc1ccc(C(F)(F)F)cc1C(=O)Nc1ccc(C)c(C(N)=O)c1 [Compound 294, N-(3-carbamoyl-4-methylphenyl)-2-(4-fluoro-2-methylphenoxy)-5-(trifluoromethyl)benzamide]",0.037
15,"Cc1cc(F)ccc1Oc1ccc(C(F)(F)F)cc1C(=O)Nc1cccc(C(N)=O)c1 [Compound 296, N-(3-carbamoylphenyl)-2-(4-fluoro-2-methylphenoxy)-5-(trifluoromethyl)benzamide]",0.018
16,Cc1cc(F)ccc1Oc1ccc(C(F)(F)F)cc1C(=O)Nc1ccc(C(N)=O)cc1 [Compound 297],0.04
17,"COc1cc(F)ccc1Oc1cc(C(F)(F)F)ccc1C(=O)Nc1cccc(C(N)=O)c1 [Compound 298, N-(3-Carbamoylphenyl)-2-[4-fluoro-2-(methoxy)phenoxy]-4-(trifluoromethyl)benzamide]",0.014
18,"COc1ccc(Oc2cc(C(F)(F)F)ccc2C(=O)Nc2cccc(C(N)=O)c2)c(Cl)c1 [Compound 299, N-(3-carbamoylphenyl)-2-[2-chloro-4-(methoxy)phenoxy]-4-(trifluoromethyl)benzamide]",0.13
19,"NC(=O)c1cccc(NC(=O)c2ccc(C(F)(F)F)cc2Oc2ccc(F)cc2)c1 [Compound 300, N-(3-carbamoylphenyl)-2-[4-fluorophenoxy]-4-(trifluoromethyl)benzamide]",0.061
20,"COc1ccc(Oc2cc(C(F)(F)F)ccc2C(=O)Nc2cccc(C(N)=O)c2)c(OC)c1 [Compound 301, N-(3-carbamoylphenyl)-2-[2,4-(dimethoxy)phenoxy]-4-(trifluoromethyl)benzamide]",0.057
21,"COc1cc(Cl)ccc1Oc1cc(C(F)(F)F)ccc1C(=O)Nc1cccc(C(N)=O)c1 [Compound 302, N-(3-carbamoylphenyl)-2-[4-chloro-2-(methoxy)phenoxy]-4-(trifluoromethyl)benzamide]",0.026
